Earlier results in patent publication US20100197018A1, “USE OF SUBSTRATES AS PHARMACOLOGICAL CHAPERONES” (AMICUS THERAPEUTICS, INC., priority 2007, published 2010).
Like-named read-outs stand apart in the source and are kept apart here. Marks after values point to notes of the source that are not given here.

Columns and labels:
[1] = molecular target: T1, N-acetyl-glucosamine-6-sulfate sulfatase (6S) Form A (Homo sapiens, UniProt P15586); settings: for Relative catalytic efficiency*: kcat./Km calculated relative to a value for GlcNAc6S = 1; for pH optimum: Table 6
T1 sequence (P15586 37-552): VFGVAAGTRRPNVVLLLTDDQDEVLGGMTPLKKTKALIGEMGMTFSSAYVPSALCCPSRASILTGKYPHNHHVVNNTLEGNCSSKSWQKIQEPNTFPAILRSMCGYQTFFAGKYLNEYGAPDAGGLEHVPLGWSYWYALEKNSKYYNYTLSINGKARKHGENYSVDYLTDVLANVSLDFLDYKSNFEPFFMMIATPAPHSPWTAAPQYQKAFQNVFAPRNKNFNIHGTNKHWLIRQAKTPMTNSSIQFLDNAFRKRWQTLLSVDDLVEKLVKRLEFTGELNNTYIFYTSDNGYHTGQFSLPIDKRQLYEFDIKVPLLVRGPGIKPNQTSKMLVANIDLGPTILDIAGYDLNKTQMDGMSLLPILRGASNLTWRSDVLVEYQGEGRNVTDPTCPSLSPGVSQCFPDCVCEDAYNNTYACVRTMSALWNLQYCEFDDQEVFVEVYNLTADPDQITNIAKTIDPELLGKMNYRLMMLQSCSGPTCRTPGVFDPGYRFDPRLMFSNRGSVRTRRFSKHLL

[2] = molecular target: T2, N-acetyl-glucosamine-6-sulfate sulfatase (6S) Form B (Homo sapiens, UniProt P15586)
T2 sequence (P15586 37-552): T1 sequence (P15586 37-552)

[3] = molecular target: T3, heparan-N-sulfatase (Homo sapiens, UniProt P51688); settings: for Relative catalytic efficiency*: GlcNS = 1.00; for pH optimum of the enzyme for the substrate: purified enzyme
T3 sequence (P51688 21-502): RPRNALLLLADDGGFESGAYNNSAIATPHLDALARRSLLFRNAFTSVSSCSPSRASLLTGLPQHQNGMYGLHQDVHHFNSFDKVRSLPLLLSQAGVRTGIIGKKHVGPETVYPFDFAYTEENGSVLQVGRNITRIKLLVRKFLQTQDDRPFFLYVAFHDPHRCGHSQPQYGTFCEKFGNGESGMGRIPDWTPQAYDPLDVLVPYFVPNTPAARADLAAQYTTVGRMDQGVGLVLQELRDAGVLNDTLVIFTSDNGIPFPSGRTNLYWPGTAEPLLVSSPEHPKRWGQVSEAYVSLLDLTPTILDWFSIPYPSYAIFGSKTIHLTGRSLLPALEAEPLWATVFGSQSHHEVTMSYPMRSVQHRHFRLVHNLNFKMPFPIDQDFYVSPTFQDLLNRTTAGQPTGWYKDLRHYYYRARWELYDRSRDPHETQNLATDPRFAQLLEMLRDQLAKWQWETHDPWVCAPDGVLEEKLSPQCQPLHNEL

[4] = molecular target: T4, iduronate-2-sulfatase (Homo sapiens, UniProt P22304); settings: for pH optimum: Table 4, cells marked * (not optimum pH) left out; for Relative catalytic efficiency: IdoA2S-anM = 1.0
T4 sequence (P22304 34-550): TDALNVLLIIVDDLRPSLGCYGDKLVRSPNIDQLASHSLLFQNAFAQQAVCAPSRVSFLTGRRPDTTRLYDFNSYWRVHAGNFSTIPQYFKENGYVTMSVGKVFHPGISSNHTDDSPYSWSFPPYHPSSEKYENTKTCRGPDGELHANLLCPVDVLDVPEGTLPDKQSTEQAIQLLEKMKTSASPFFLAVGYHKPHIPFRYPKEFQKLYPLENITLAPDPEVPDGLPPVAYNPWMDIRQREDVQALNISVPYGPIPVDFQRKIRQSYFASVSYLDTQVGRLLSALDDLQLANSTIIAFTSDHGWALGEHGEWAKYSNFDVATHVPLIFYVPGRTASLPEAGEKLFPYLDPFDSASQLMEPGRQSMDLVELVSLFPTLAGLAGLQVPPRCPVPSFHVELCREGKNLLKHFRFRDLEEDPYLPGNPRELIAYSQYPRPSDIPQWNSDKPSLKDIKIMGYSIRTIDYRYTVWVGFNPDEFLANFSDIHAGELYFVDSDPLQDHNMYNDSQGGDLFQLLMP

[5] = second line of the substrate, parentheses not explained
[6] = 37°, pH: GlcNS-Ido 6.7, GlcNS-Ido2S 5.5, GlcNS-IdOA 5.6, GlcNS-IdoA-GlcNS-IdOA 5.6, GlcNS-IdoA2S-anM6S 3.6, GlcNS6S-Ido 4.2, GlcNS6S-Ido2S 3.8, GlcNS6S-IdOA 4.2
[7] = rows whose other values are marked †
[8] = values marked † (60° C. per footnote), pH: GlcNS 5.6, GalNS 5.6, GlcNS-IdOA 5.4
[9] = at the optimum pH of the substrate analog
[10] = 37°, pH 5.6 (second line of the substrate)
[11] = not optimum pH (*): IdoA2S-anM6S at pH 5.0, IdoA2S-anT4S at pH 4.0

## CC(=O)N[C@H]1[C@@H](O[C@@H]([C@H](O)[C@@H](O)CO)[C@@H](O)C(=O)O)O[C@H](COS(=O)(=O)O)[C@@H](O)[C@@H]1O [GlcNAc6S-IdOA, O-(α-N-acetylglucosamine 6-sulphate)-(1-3)-L-idonic acid]
[1]
  pH optimum of 6S activity: 5.0
  pH optimum: 5.0
[1]; Form A
  kcat. (turnover number): 7.90 mol/min per mol of enzyme
  Relative catalytic efficiency*: 31
[1]; Form A, read-out: Km
  Km: 11.1 µM
[1]; Form A, relative to GlcNAc6S = 1, parentheses not explained
  Relative catalytic efficiency*, value in parentheses: (29)
[1]; Form A, second line of the substrate, parentheses not explained
  kcat. (turnover number), value in parentheses: (6.79) mol/min per mol of enzyme
[1]; Form A, second line of the substrate, parentheses not explained, read-out: Km, value in parentheses
  Km: 10 µM
[1]; form A over form B
  Ratio of catalytic efficiencies: form A/form B: 2.4
[1]; [5]
  Ratio of catalytic efficiencies: form A/form B, value in parentheses: (2.8)
  pH optimum, value in parentheses: (5.0)
[2]; read-out: Km
  Km: 14.3 µM
[2]; second line of the substrate, parentheses not explained, read-out: Km, value in parentheses
  Km: 13.2 µM

## O=C(O)[C@H](O)[C@@H](O[C@H]1O[C@H](CO)[C@@H](O[C@@H]2O[C@@H](C(=O)O)[C@@H](O[C@H]3O[C@H](CO)[C@@H](O)[C@H](O)[C@H]3NS(=O)(=O)O)[C@H](O)[C@H]2O)[C@H](O)[C@H]1NS(=O)(=O)O)[C@H](O)[C@@H](O)CO [GlcNS-IdoA-GlcNS-IdOA, O-(α-2-sulphaminoglucosamine)-(1-4)-L-O-(α-iduronic acid)-(1-4)-O-D-(α-2-sulphaminoglucosamine)-(1-3)-L-idonic acid]
[3]; 37°, pH (optimum)
  Relative catalytic efficiency*: 6927
[3]; [6]
  Km: 10.3 µM
  kcat. (turnover number): 52 mol/min per mol of enzyme
[3]
  pH optimum of the enzyme for the substrate: 5.5

## O=C[C@H](O)[C@@H](O)[C@H](O[C@H]1O[C@H](CO)[C@@H](O)[C@H](O)[C@H]1NS(=O)(=O)O)[C@@H](O)C(=O)O [GlcNS-IdOA, O-(α-2-sulphaminoglucosamine)-(1-4)-O-L-iduronic acid]
[3]; 37°, pH (optimum)
  Relative catalytic efficiency*: 359
[3]; [6]
  Km: 35 µM
  kcat. (turnover number): 9.19 mol/min per mol of enzyme
[3]
  pH optimum of the enzyme for the substrate: 5.5
[3]; [7]
  Relative catalytic efficiency*: 1477
[3]; [8]
  Km: 40.8 µM
  kcat. (turnover number): 44† mol/min per mol of enzyme

## O=C[C@H](OS(=O)(=O)O)[C@@H](O)[C@H](O[C@H]1O[C@H](COS(=O)(=O)O)[C@@H](O)[C@H](O)[C@H]1NS(=O)(=O)O)[C@@H](O)CO [GlcNS6S-Ido2S, O-(α-2-sulphaminoglucosamine 6-sulphate)-(1-4)-L-idose 2-sulphate]
[1]; Form A
  kcat. (turnover number): 0.201 mol/min per mol of enzyme
  Relative catalytic efficiency*: 3.8
[1]; Form A, read-out: Km
  Km: 2.3 µM
[1]
  pH optimum: 4.2
[3]; 37°, pH (optimum)
  Relative catalytic efficiency*: 388
[3]; [6]
  Km: 4.1 µM
  kcat. (turnover number): 3.333 mol/min per mol of enzyme

## 2-sulphoamino-glucosamine [GlcNS]
[3]; in parentheses under the † value, parentheses not explained, pH 5.6
  kcat. (turnover number), value in parentheses: (0.0005) mol/min per mol of enzyme
[3]
  pH optimum of the enzyme for the substrate: 5.6
[3]; [7]
  Relative catalytic efficiency*: 1.00
[3]; [8]
  Km: 0.7 µM
  kcat. (turnover number): 0.0021† mol/min per mol of enzyme

## O=C[C@H](O)[C@@H](O)[C@H](O[C@H]1O[C@H](CO)[C@@H](O)[C@H](O)[C@H]1NS(=O)(=O)O)[C@@H](O)CO [GlcNS-Ido, O-(α-2-sulphaminoglucosamine)-(1-4)-L-idose)]
[3]; 37°, pH (optimum)
  Relative catalytic efficiency*: 7.40
[3]; [6]
  Km: 7.7 µM
  kcat. (turnover number): 0.0414 mol/min per mol of enzyme
[3]
  pH optimum of the enzyme for the substrate: 6.7

## O=S(=O)(O)N[C@H]1[C@@H](O[C@H]2[C@H](O)[C@@H](OS(=O)(=O)O)C(O)O[C@H]2CO)O[C@H](CO)[C@@H](O)[C@@H]1O (stereo partly drawn) [GlcNS-Ido2S, O-(α-2-sulphaminoglucosamine)-(1-4)-L-6-idose 2-sulphate]
[3]; 37°, pH (optimum)
  Relative catalytic efficiency*: 36
[3]; [6]
  Km: 4.1 µM
  kcat. (turnover number): 0.11 mol/min per mol of enzyme
[3]
  pH optimum of the enzyme for the substrate: 5.5

## L-O-(α-iduronic acid 2 sulphate)-(1-4)-D-β-(α-2-sulphaminoglucosamine)-(1-4)-O-(β-D-glucuronic or α-L-iduronic acid)-(1-4) D-O(α-N-acetylglucosamine-(1-3)-D-O-]-gulonic acid [IdoA2S-GlcNS-UA-GlcNAc-GlcOA]
[4]
  pH optimum: 5.4
[4]; [9]
  Km: 1.9 µM
  kcat. (turnover no.): 756 mol/min per mol of enzyme
  Relative catalytic efficiency: 47.5

## O=C(O)[C@@H]1O[C@@H](O[C@H]2[C@H](O)[C@@H](CO)O[C@@H]2COS(=O)(=O)O)[C@H](OS(=O)(=O)O)[C@@H](O)[C@@H]1O[C@H]1O[C@H](CO)[C@@H](O)[C@H](O)[C@H]1NS(=O)(=O)O [GlcNS-IdoA2S-anM6S, O-α-2-sulphaminoglucosamine)-(1-4) O-L-(α-iduronic-acid 2-sulphate)-(1-4)-O-D-(2,5)-anhydro-mannitol 6-sulphate]
[3]; [10]
  Km: 5.3 µM
  kcat. (turnover number): 117 mol/min per mol of enzyme
  Relative catalytic efficiency*: 30237
[3]; 37°, pH (optimum)
  Relative catalytic efficiency*: 67193
[3]; [6]
  Km: 3.8 µM
  kcat. (turnover number): 186 mol/min per mol of enzyme

## O-(α-L-idopyranosyluronic acid 2-sulfate)-(1-3)-2,5-anhydro-D-talitol 4-sulfate [IdoA2S-anT4S]
[4]
  pH optimum: 5.0
[4]; [9]
  Km: 0.7 µM
  kcat. (turnover no.): 507 mol/min per mol of enzyme
  Relative catalytic efficiency: 86.2
[4]; [11]
  Km: 1.1 µM
  kcat. (turnover no.): 270 mol/min per mol of enzyme
  Relative catalytic efficiency: 29.3

## O=C(O)[C@@H]1O[C@@H](O[C@H]2[C@H](O)[C@@H](CO)O[C@@H]2CO)[C@H](OS(=O)(=O)O)[C@@H](O)[C@@H]1O [IdoA2S-anM, L-O-(α-iduronic acid 2-sulphate-(1-4)-D-β-2,5-anhydro-mannitol]
[4]
  pH optimum: 5.4
[4]; [9]
  Km: 19.2 µM
  kcat. (turnover no.): 161 mol/min per mol of enzyme
  Relative catalytic efficiency: 1.0
